Measurements as given in patent EP0745595A1, “3-(3-Aryloxyphenyl)-1-(substituted methyl)-s-triazine-2,4,6-oxo or thiotrione herbicidal agents” (American Cyanamid Company, priority 1995, dated 1996).

Columns and labels:
Format in all cases: in vivo
[1] = tested on: SETARIA VIRIDIS, (L) BEAU; assay: Postemergence herbicidal evaluation, SETVI (Foxtail, Green); set-up: key to SETVI rating / Herbicidal effect rating, SETVI / SETVI: 0-9 visual rating scale vs untreated control
Summary of the method: (§1)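 Visual 0–9 scores reflect stand, vigor, malformation, size, chlorosis and overall appearance relative to control, taken 4–5 weeks after spraying two-week-old seedlings with about 0.125–0.500 kg/ha compound in acetone/water/TWEEN 20.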

[2] = tested on: IPOMOEA SPP.; assay: Postemergence herbicidal evaluation, IPOSS (Morningglory spp.)
Summary of the method: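 Seedlings of morningglory (Ipomoea spp.) were raised in jiffy flats for roughly two weeks. They were then sprayed postemergence through a nozzle at 40 psi with test compound dispersed in 50/50 acetone/water containing 0.5% TWEEN®20 surfactant. Plants were kept on greenhouse benches under standard care and visually rated 0-9 against controls four to five weeks after treatment.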

[3] = tested on: CHENOPODIUM ALBUM, L.; assay: Preemergence herbicidal evaluation, CHEAL (Lambsquarters, Common); details: for CHEAL herbicidal rating: rated four to five weeks after treatment
Summary of the method: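 Greenhouse preemergence test; treated soil cups received compound in aqueous acetone (about 0.125 to 0.50 kg/ha) right after sowing and were assessed visually 4-5 weeks later on a 0-9 scale compared with control plants.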

[4] = tested on: ECHINOCHLOA CRUS-GALLI, (L) BEAU; assay: Postemergence herbicidal evaluation, ECHCG (Barnyardgrass); set-up: key to ECHCG rating / Herbicidal effect rating, ECHCG / ECHCG: 0-9 visual rating scale vs untreated control
Summary of the method: as §1

[5] = tested on: ORYZA SATIVA, L. TEBONNET; assay: Rice tolerance to post-transplant applications under flooded paddy conditions, ORYSAT (Rice, Tebonnet); details: for Herbicidal effect rating, ORYSAT: post-transplant rice, 3-4 weeks after treatment; for ORYSAT: post-transplanted rice
Summary of the method: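 Two ten-day-old Tebonnet rice seedlings were transplanted into silt loam and kept flooded 1.5 to 3 cm deep. Three days after transplanting, the flood surface received the compound in aqueous/acetone 50/50 v/v at about 0.5, 0.25, 0.125 or 0.063 kg/ha. Injury was rated visually on a 0-9 scale versus control after 3-4 weeks.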

[6] = tested on: ZEA MAYS L.; assay: Postemergence herbicidal evaluation, ZEAMX (Corn, Field)
Summary of the method: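 Corn seedlings were raised in jiffy flats for roughly two weeks, then sprayed postemergence with the test material dispersed in 50/50 acetone/water containing 0.5% TWEEN®20 surfactant, using a nozzle at 40 psi. Plants were kept on greenhouse benches under standard care and visually rated on a 0-9 scale four to five weeks after treatment.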

[7] = tested on: ABUTILON THEOPHRASTI, MEDIC.; assay: Postemergence herbicidal evaluation, ABUTH (Velvetleaf)
Summary of the method: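 Velvetleaf (Abutilon theophrasti) seedlings were raised in jiffy flats for about two weeks and then sprayed postemergence. The test compound was dispersed in a 50/50 acetone/water mixture containing 0.5% TWEEN®20 and applied through a nozzle operating at 40 psi. Plants were kept on greenhouse benches and rated 0-9 four to five weeks after treatment.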

[8] = tested on: TRITICUM AESTIVUM, CV. APOLLO; assay: Postemergence herbicidal evaluation, TRZAWO (Wheat, Winter, CV. APOLLO)
Summary of the method: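 Wheat seedlings, raised in jiffy flats for roughly two weeks, were sprayed postemergence with test compound dispersed in a 50/50 acetone/water mixture containing 0.5% TWEEN®20 surfactant, delivered through a nozzle at 40 psi. Plants were then kept on greenhouse benches under conventional care. Four to five weeks after treatment they were rated visually on a 0-9 scale against an untreated control, and ratings from repeated tests were averaged.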

[9] = tested on: CHENOPODIUM ALBUM, L.; assay: Postemergence herbicidal evaluation, CHEAL (Lambsquarters, Common)
Summary of the method: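 Seedlings of common lambsquarters (Chenopodium album) were raised in jiffy flats for roughly two weeks, then sprayed postemergence through a nozzle at 40 psi with test compound dispersed in 50/50 acetone/water containing 0.5% TWEEN®20 surfactant. Plants were kept on greenhouse benches under standard care and rated visually on a 0-9 scale versus controls.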

[10] = tested on: GALIUM APARINE; assay: Postemergence herbicidal evaluation, GALAP (Galium); set-up: key to GALAP rating / Herbicidal effect rating, GALAP / GALAP: 0-9 visual rating scale vs untreated control
Summary of the method: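 Galium (GALAP) seedlings were raised in jiffy flats for about two weeks, then sprayed with test compounds dispersed in 50/50 acetone/water containing 0.5% TWEEN®20, delivered through a nozzle at 40 psi. Plants were kept on greenhouse benches and visually rated 0-9 against a control four to five weeks later; repeat tests were averaged.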

[11] = tested on: AMBROSIA ARTEMISIIFOLIA, L.; assay: Postemergence herbicidal evaluation, AMBEL (Ragweed, Common)
Summary of the method: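 Common ragweed (Ambrosia artemisiifolia) seedlings were raised in jiffy flats for roughly two weeks, then sprayed postemergence through a nozzle at 40 psi with the test compound dispersed in 50/50 acetone/water carrying 0.5% TWEEN®20. The plants were kept on greenhouse benches under conventional care. Four to five weeks later, injury was rated visually on a 0-9 scale, and repeat tests were averaged.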

COC(=O)Cn1c(=O)n(C)c(=O)n(-c2cc(Oc3ccccn3)ccc2[N+](=O)[O-])c1=O [Compound 38, Methyl tetrahydro-3-methyl-5-[2-nitro-5-(2-pyridyloxy)phenyl]-2,4,6-trioxo-s-triazine-1(2H)-acetate]
SETVI rating ([1]; Rate 0.500 kg/ha): 0.0 | IPOSS rating ([2]; Rate 0.500 kg/ha): 0.0 | CHEAL herbicidal rating ([3]; Rate 0.500 kg/ha): 0.0 | ECHCG rating ([4]; Rate 0.500 kg/ha): 0.0 | Herbicidal effect rating, ORYSAT ([5]; 0.500 kg/ha): 0.0 | ZEAMX rating ([6]; Rate 0.500 kg/ha): 0.0 | ABUTH rating ([7]; Rate 0.500 kg/ha): 0.0 | TRZAWO rating ([8]; Rate 0.500 kg/ha): 0.0 | CHEAL rating ([9]; Rate 0.500 kg/ha): 0.0 | GALAP rating ([10]; Rate 0.500 kg/ha): 0.0 | AMBEL rating ([11]; Rate 0.500 kg/ha): 0.0

COC(=O)Cn1c(=O)n(C)c(=O)n(-c2cc(Oc3ccc(C(F)(F)F)cc3Cl)ccc2Cl)c1=O [Compound 39, Methyl 3-{[2-chloro-5-(2-chloro-α,α,α-trifluoro-p-tolyl)oxy]phenyl}tetrahydro-5-methyl-2,4,6-trioxo-s-triazine-1(2H)-acetate]
SETVI ([1]; Rate 0.016 kg/ha): 2.5 | SETVI ([1]; Rate 0.032 kg/ha): 4.5 | SETVI ([1]; Rate 0.063 kg/ha): 3.5 | SETVI ([1]; Rate 0.125 kg/ha): 4.5 | SETVI ([1]; Rate 0.250 kg/ha): 8.0 | SETVI ([1]; Rate 0.500 kg/ha): 9.0 | IPOSS ([2]; Rate 0.016 kg/ha): 5.5 | IPOSS ([2]; Rate 0.032 kg/ha): 7.0 | IPOSS ([2]; Rate 0.063 kg/ha): 9.0 | IPOSS ([2]; Rate 0.125 kg/ha): 9.0 | IPOSS rating ([2]; Rate 0.125 kg/ha): 9.0 | IPOSS ([2]; Rate 0.250 kg/ha): 9.0 | IPOSS rating ([2]; Rate 0.250 kg/ha): 9.0 | IPOSS ([2]; Rate 0.500 kg/ha): 9.0 | IPOSS rating ([2]; Rate 0.500 kg/ha): 9.0 | CHEAL ([3]; Rate 0.063 kg/ha): 9.0 | CHEAL ([3]; Rate 0.125 kg/ha): 9.0 | CHEAL herbicidal rating ([3]; Rate 0.125 kg/ha): 9.0 | CHEAL ([3]; Rate 0.250 kg/ha): 9.0 | CHEAL herbicidal rating ([3]; Rate 0.250 kg/ha): 9.0 | CHEAL ([3]; Rate 0.500 kg/ha): 9.0 | CHEAL herbicidal rating ([3]; Rate 0.500 kg/ha): 9.0 | ECHCG ([4]; Rate 0.016 kg/ha): 1.5 | ECHCG ([4]; Rate 0.032 kg/ha): 3.0 | ECHCG ([4]; Rate 0.063 kg/ha): 1.0 | ECHCG ([4]; Rate 0.125 kg/ha): 4.5 | ECHCG ([4]; Rate 0.250 kg/ha): 7.5 | ECHCG ([4]; Rate 0.500 kg/ha): 8.0 | Herbicidal effect rating, ORYSAT ([5]; 0.063 kg/ha): 2.5 | Herbicidal effect rating, ORYSAT ([5]; 0.125 kg/ha): 3.5 | Herbicidal effect rating, ORYSAT ([5]; 0.250 kg/ha): 5.0 | Herbicidal effect rating, ORYSAT ([5]; 0.500 kg/ha): 5.3 | ORYSAT ([5]; Rate 0.031 kg/ha): 1.8 | ORYSAT ([5]; Rate 0.063 kg/ha): 2.5 | ORYSAT ([5]; Rate 0.125 kg/ha): 3.5 | ORYSAT ([5]; Rate 0.250 kg/ha): 5.0 | ZEAMX ([6]; Rate 0.016 kg/ha): 3.3 | ZEAMX ([6]; Rate 0.032 kg/ha): 4.3 | ZEAMX ([6]; Rate 0.063 kg/ha): 4.8 | ZEAMX ([6]; Rate 0.125 kg/ha): 6.5 | ZEAMX ([6]; Rate 0.250 kg/ha): 8.0 | ZEAMX ([6]; Rate 0.500 kg/ha): 8.5 | ABUTH ([7]; Rate 0.016 kg/ha): 7.0 | ABUTH ([7]; Rate 0.032 kg/ha): 8.5 | ABUTH ([7]; Rate 0.063 kg/ha): 9.0 | ABUTH ([7]; Rate 0.125 kg/ha): 9.0 | ABUTH rating ([7]; Rate 0.125 kg/ha): 9.0 | ABUTH ([7]; Rate 0.250 kg/ha): 9.0 | ABUTH rating ([7]; Rate 0.250 kg/ha): 9.0 | ABUTH ([7]; Rate 0.500 kg/ha): 9.0 | ABUTH rating ([7]; Rate 0.500 kg/ha): 9.0 | TRZAWO ([8]; Rate 0.016 kg/ha): 2.8 | TRZAWO ([8]; Rate 0.032 kg/ha): 3.8 | TRZAWO ([8]; Rate 0.063 kg/ha): 4.5 | TRZAWO ([8]; Rate 0.125 kg/ha): 4.8 | TRZAWO ([8]; Rate 0.250 kg/ha): 6.0 | TRZAWO ([8]; Rate 0.500 kg/ha): 5.5 | CHEAL ([9]; Rate 0.016 kg/ha): 6.0 | CHEAL ([9]; Rate 0.032 kg/ha): 8.0 | CHEAL ([9]; Rate 0.063 kg/ha): 9.0 | CHEAL ([9]; Rate 0.125 kg/ha): 9.0 | CHEAL rating ([9]; Rate 0.125 kg/ha): 9.0 | CHEAL ([9]; Rate 0.250 kg/ha): 9.0 | CHEAL rating ([9]; Rate 0.250 kg/ha): 9.0 | CHEAL ([9]; Rate 0.500 kg/ha): 9.0 | CHEAL rating ([9]; Rate 0.500 kg/ha): 9.0 | GALAP ([10]; Rate 0.016 kg/ha): 7.5 | GALAP ([10]; Rate 0.032 kg/ha): 8.5 | GALAP ([10]; Rate 0.063 kg/ha): 7.0 | GALAP ([10]; Rate 0.125 kg/ha): 8.0 | GALAP ([10]; Rate 0.250 kg/ha): 9.0 | GALAP ([10]; Rate 0.500 kg/ha): 9.0 | AMBEL ([11]; Rate 0.016 kg/ha): 4.5 | AMBEL ([11]; Rate 0.032 kg/ha): 6.5 | AMBEL ([11]; Rate 0.063 kg/ha): 7.5 | AMBEL ([11]; Rate 0.125 kg/ha): 8.5 | AMBEL ([11]; Rate 0.250 kg/ha): 9.0 | AMBEL ([11]; Rate 0.500 kg/ha): 9.0
